By Ki is commonly meant a measure of affinity in units of concentration, obtained from inhibition or displacement.

Each structure is given as a SMILES string.

Assay [1] addresses soluble human BACE1 catalytic domain (Homo sapiens (Human), UniProt P56817). Kind of assay: BACE1 HTRF FRET Assay. As to conditions: Ki calculated from IC50 using the Cheng-Prusoff equation; QSY7-APPswe-Eu substrate, pH 5.0. It is filed as biochemical. An excerpt:
Na^+-Acetate pH 5.0; 1% Brij-35; Glycerol; Dimethyl Sulfoxide (DMSO); Recombinant human soluble BACE1 catalytic domain (>95% pure); APP Swedish mutant peptide substrate (QSY7-APP^swe-Eu): QSY7-[…]-Europium-amide.
A homogeneous time-resolved FRET assay can be used to determine IC50 values for inhibitors of the soluble human BACE1 catalytic domain. This assay monitors the increase of 620 nm fluorescence that resulted from BACE1 cleavage of an APPswedish APP^swe mutant peptide FRET substrate (QSY7-[…]-Europium-amide). This substrate contains an N-terminal QSY7 moiety that serves as a quencher of the C-terminal Europium fluorophore (620 nm Em). In the absence of enzyme activity, 620 nm fluorescence is low in the assay and increased linearly over 3 hours in the presence of uninhibited BACE1 enzyme Inhibition of BACE1 cleavage of the QSY7-APP^swe-Eu substrate by inhibitors is manifested as a suppression of 620 nm fluorescence.
Varying concentrations of inhibitors at 3× the final desired concentration in a volume of 10 ul are preincubated with purified human BACE1 catalytic domain (3 nM in 10 μl) for 30 minutes at 30° C. in reaction buffer containing 20 mM Na-Acetate pH 5.0, 10% glycerol, 0.1% Brij-35 and 7.5% DSMO. Reactions are initiated by addition of 10 μl of 600 nM QSY7-APP^swe-Eu substrate (200 nM final) to give a final reaction volume of 30 μl in a 384 well Nunc HTRF plate. The reactions are incubated at 30° C. for 1.5 hours. The 620 nm fluorescence is then read on a Rubystar HTRF plate reader (BMG Labtechnologies) using a 50 millisecond delay followed by a 400 millisecond acquisition time window. Inhibitor IC50 values are derived from non-linear regression analysis of concentration response curves. Ki values are then calculated from IC50 values using the Cheng-Prusoff equation using a previously determined […] of 8 μM for the QSY7-APP^swe-Eu substrate at BACE1.

Assay [2] addresses purified human autoBACE-2 (Homo sapiens (Human), UniProt Q9Y5Z0). Kind of assay: BACE-2 Assay (BACE-HTRF assay). Particulars: Ki calculated from IC50 using the Cheng-Prusoff equation; QSY7-EISEVNLDAEFC-Eu-amide substrate, pH 5.0; read-out: BACE2 Ki. Type of assay: biochemical. The protocol:
Inhibitor IC50s at purified human autoBACE-2 are determined in a time-resolved endpoint proteolysis assay that measures hydrolysis of the QSY7-EISEVNLDAEFC-Eu-amide FRET peptide substrate (BACE-HTRF assay). BACE-mediated hydrolysis of this peptide results in an increase in relative fluorescence (RFU) at 620 nm after excitation with 320 nm light. Inhibitor compounds, prepared at 3× the desired final concentration in 1×BACE assay buffer (20 mM sodium acetate pH 5.0, 10% glycerol, 0.1% Brij-35) supplemented with 7.5% DMSO are pre-incubated with an equal volume of autoBACE-2 enzyme diluted in 1×BACE assay buffer (final enzyme concentration 1 nM) in black 384-well NUNC plates for 30 minutes at 30° C. The assay is initiated by addition of an equal volume of the QSY7-EISEVNLDAEFC-Eu-amide substrate (200 nM final concentration, Km=8 μM […] for autoBACE-2) prepared in 1×BACE assay buffer supplemented with 7.5% DMSO and incubated for 90 minutes at 30° C. DMSO is present at 5% final concentration in the assay. Following laser excitation of sample wells at 320 nm, the fluorescence signal at 620 nm is collected for 400 ms following a 50 μs delay on a RUBYstar HTRF plate reader (BMG Labtechnologies). Raw RFU data is normalized to maximum (1.0 nM BACE/DMSO) and minimum (no enzyme/DMSO) RFU values. IC50s are determined by nonlinear regression analysis (sigmoidal dose response, variable slope) of percent inhibition data with minimum and maximum values set to 0 and 100 percent respectively. Similar IC50s are obtained when using raw RFU data. The Ki values are calculated from the IC50 using the Cheng-Prusoff equation.

purified human autoBACE-2, sequence (Q9Y5Z0 63-473 limits assumed): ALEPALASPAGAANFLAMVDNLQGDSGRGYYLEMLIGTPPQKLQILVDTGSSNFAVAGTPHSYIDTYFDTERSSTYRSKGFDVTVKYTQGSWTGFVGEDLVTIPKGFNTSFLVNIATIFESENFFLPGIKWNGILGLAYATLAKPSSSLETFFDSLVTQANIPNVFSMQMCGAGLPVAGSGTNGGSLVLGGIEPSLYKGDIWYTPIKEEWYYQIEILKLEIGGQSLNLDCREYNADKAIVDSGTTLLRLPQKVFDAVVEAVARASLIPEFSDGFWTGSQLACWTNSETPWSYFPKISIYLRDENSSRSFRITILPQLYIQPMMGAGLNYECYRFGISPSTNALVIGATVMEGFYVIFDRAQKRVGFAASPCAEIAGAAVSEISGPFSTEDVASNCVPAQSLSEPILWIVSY
soluble human BACE1 catalytic domain, sequence (P56817 75-416): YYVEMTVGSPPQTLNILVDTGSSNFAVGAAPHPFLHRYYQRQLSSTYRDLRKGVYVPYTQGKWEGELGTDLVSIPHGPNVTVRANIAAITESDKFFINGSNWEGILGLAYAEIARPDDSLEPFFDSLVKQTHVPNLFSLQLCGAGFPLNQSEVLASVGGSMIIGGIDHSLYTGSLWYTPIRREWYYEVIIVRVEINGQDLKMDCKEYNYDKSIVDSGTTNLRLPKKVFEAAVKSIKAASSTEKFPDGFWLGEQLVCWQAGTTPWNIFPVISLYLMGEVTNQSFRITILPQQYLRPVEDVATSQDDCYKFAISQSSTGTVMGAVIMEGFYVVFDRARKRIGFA

Turning to `COc1ccc(C(=O)Nc2ccc(F)c([C@@]3(C)NC(=N)N(C)S(=O)(=O)C34CC4)c2)nc1` [Example 1a, N-{4-fluoro-3-[(8R)-6-imino-5,8-dimethyl-4,4-dioxido-4-thia-5,7-diazaspiro[2.5]oct-8-yl]phenyl}-5-methoxypyridine-2-carboxamide], the Ki in assay [1] was 18 nM; in assay [2], 17 nM.

Take `CN1C(=N)N[C@](C)(c2cc(NC(=O)c3cn(C)nc3C(F)(F)F)ccc2F)C2(CC2)S1(=O)=O` [Example 1b, N-{4-fluoro-3-[(8R)-6-imino-5,8-dimethyl-4,4-dioxido-4-thia-5,7-diazaspiro[2.5]oct-8-yl]phenyl}-1-methyl-3-(trifluoromethyl)-1H-pyrazole-4-carboxamide]: the Ki was 4940 nM in assay [1] and 3250 nM in assay [2].

Regarding `C#CCOc1ccc(C(=O)Nc2ccc(F)c([C@@]3(C)NC(=N)N(C)S(=O)(=O)C34CC4)c2)nc1` [Example 1c, N-{4-fluoro-3-[(8R)-6-imino-5,8-dimethyl-4,4-dioxido-4-thia-5,7-diazaspiro[2.5]oct-8-yl]phenyl}-5-(prop-2-yn-1-yloxy)pyridine-2-carboxamide], the Ki in assay [1] was 6 nM; in assay [2] it was 95 nM.

Regarding `CN1C(=N)N[C@](C)(c2cc(NC(=O)c3cnsn3)ccc2F)C2(CC2)S1(=O)=O` [Example 1d, N-{4-fluoro-3-[(8R)-6-imino-5,8-dimethyl-4,4-dioxido-4-thia-5,7-diazaspiro[2.5]oct-8-yl]phenyl}-1,2,5-thiadiazole-3-carboxamide], the values for the Ki in assay [1] and in assay [2] were 25 nM and 15 nM, respectively.

As for `COc1cnc(C(=O)Nc2ccc(F)c([C@@]3(C)NC(=N)N(C)S(=O)(=O)C34CC4)c2)cn1` [Example 1e], the Ki in assay [1] is 20 nM; in assay [2], 56 nM.

`CN1C(=N)N[C@](C)(c2cc(NC(=O)c3ccc(C(F)(F)F)cn3)ccc2F)C2(CC2)S1(=O)=O` [Example 1f, N-{4-fluoro-3-[(8R)-6-imino-5,8-dimethyl-4,4-dioxido-4-thia-5,7-diazaspiro[2.5]oct-8-yl]phenyl}-5-(trifluoromethyl)pyridine-2-carboxamide]: the figures for the Ki in assay [1] and in assay [2] were 8 nM and 55 nM, respectively.

In the case of `CN1C(=N)N[C@](C)(c2cc(NC(=O)c3ccc(C#N)cn3)ccc2F)C2(CC2)S1(=O)=O` [Example 1g, 5-cyano-N-{4-fluoro-3-[(8R)-6-imino-5,8-dimethyl-4,4-dioxido-4-thia-5,7-diazaspiro[2.5]oct-8-yl]phenyl}pyridine-2-carboxamide], the results for the Ki in assay [1] and in assay [2] were 3 nM and 17 nM, respectively.

Turning to `Cc1nc(C(=O)Nc2ccc(F)c([C@@]3(C)NC(=N)N(C)S(=O)(=O)C34CC4)c2)no1` [Example 1h, N-{4-fluoro-3-[(8R)-6-imino-5,8-dimethyl-4,4-dioxido-4-thia-5,7-diazaspiro[2.5]oct-8-yl]phenyl}-5-methyl-1,2,4-oxadiazole-3-carboxamide], the Ki in assay [1] is 31 nM; in assay [2], 8 nM.

Take `CN1C(=N)N[C@](C)(c2cc(NC(=O)c3ncc(C(F)(F)F)cn3)ccc2F)C2(CC2)S1(=O)=O` [Example 1i, N-{4-fluoro-3-[(8R)-6-imino-5,8-dimethyl-4,4-dioxido-4-thia-5,7-diazaspiro[2.5]oct-8-yl]phenyl}-5-(trifluoromethyl)pyrimidine-2-carboxamide]: the inhibition constant Ki in assay [1] was 47 nM; in assay [2], 106 nM.

`COc1cnc(C(=O)Nc2ccc(F)c([C@@]3(C)NC(=N)N(C)S(=O)(=O)C34CC4)c2)c(C)c1` [Example 1j]: the Ki is 22 nM in assay [1] and 10 nM in assay [2].

For `Cc1cc(C#N)cnc1C(=O)Nc1ccc(F)c([C@@]2(C)NC(=N)N(C)S(=O)(=O)C23CC3)c1` [Example 1k, 5-cyano-N-{4-fluoro-3-[(8R)-6-imino-5,8-dimethyl-4,4-dioxido-4-thia-5,7-diazaspiro[2.5]oct-8-yl]phenyl}-3-methylpyridine-2-carboxamide], the Ki in assay [1] was 2 nM; in assay [2], 5 nM.

`CN1C(=N)N[C@](C)(c2cc(NC(=O)c3ccn(C(F)F)n3)ccc2F)C2(CC2)S1(=O)=O` [Example 1l, 1-(difluoromethyl)-N-{4-fluoro-3-[(8R)-6-imino-5,8-dimethyl-4,4-dioxido-4-thia-5,7-diazaspiro[2.5]oct-8-yl]phenyl}-1H-pyrazole-3-carboxamide]: the Ki was 5 nM in assay [1] and 2 nM in assay [2].

For `CN1C(=N)N[C@](C)(c2cc(NC(=O)c3cn4ccc(C#N)cc4n3)ccc2F)C2(CC2)S1(=O)=O` [Example 1m, 7-cyano-N-{4-fluoro-3-[(8R)-6-imino-5,8-dimethyl-4,4-dioxido-4-thia-5,7-diazaspiro[2.5]oct-8-yl]phenyl}imidazo[1,2-a]pyridine-2-carboxamide], the Ki in assay [1] was 5500 nM; in assay [2], 1640 nM.

On to `Cc1cc(C(=O)Nc2ccc(F)c([C@@]3(C)NC(=N)N(C)S(=O)(=O)C34CC4)c2)no1` [Example 1n, N-{4-fluoro-3-[(8R)-6-imino-5,8-dimethyl-4,4-dioxido-4-thia-5,7-diazaspiro[2.5]oct-8-yl]phenyl}-5-methylisoxazole-3-carboxamide], for which the Ki is 620 nM in assay [1] and 220 nM in assay [2].

Consider `CN1C(=N)N[C@](C)(c2cc(NC(=O)c3ncc(Cl)cc3F)ccc2F)C2(CC2)S1(=O)=O` [Example 1o, 5-chloro-3-fluoro-N-{4-fluoro-3-[(8R)-6-imino-5,8-dimethyl-4,4-dioxido-4-thia-5,7-diazaspiro[2.5]oct-8-yl]phenyl}pyridine-2-carboxamide], for which the Ki in assay [1] was 6 nM; in assay [2] it was 3 nM.

For `CN1C(=N)N[C@](C)(c2cc(NC(=O)c3cnc(C(F)(F)F)cn3)ccc2F)C2(CC2)S1(=O)=O` [Example 1p, 5-N-{4-fluoro-3-[(8R)-6-imino-5,8-dimethyl-4,4-dioxido-4-thia-5,7-diazaspiro[2.5]oct-8-yl]phenyl}-5-(trifluoromethyl)pyrazine-2-carboxamide], the values for the Ki in assay [1] and in assay [2] were 58 nM and 346 nM, respectively.

`COc1cnc(C(=O)Nc2ccc(F)c([C@@]3(C)NC(=N)N(C)S(=O)(=O)C34CC4)c2)c(C)n1` [Example 1q, N-{4-fluoro-3-[(8R)-6-imino-5,8-dimethyl-4,4-dioxido-4-thia-5,7-diazaspiro[2.5]oct-8-yl]phenyl}-5-methoxy-3-methylpyrazine-2-carboxamide]: the Ki is 38 nM in assay [1] and 41 nM in assay [2].

Consider `CN1C(=N)N[C@](C)(c2cc(NC(=O)c3ccc(F)cn3)ccc2F)C2(CC2)S1(=O)=O` [Example 1r, 5-fluoro-N-{4-fluoro-3-[(8R)-6-imino-5,8-dimethyl-4,4-dioxido-4-thia-5,7-diazaspiro[2.5]oct-8-yl]phenyl}pyridine-2-carboxamide], for which the Ki in assay [1] is 16 nM; in assay [2], 8 nM.

On to `CN1C(=N)N[C@](C)(c2cc(NC(=O)c3ccc(OC(F)F)cn3)ccc2F)C2(CC2)S1(=O)=O` [Example 1s, 5-(difluoromethoxy)-N-{4-fluoro-3-[(8R)-6-imino-5,8-dimethyl-4,4-dioxido-4-thia-5,7-diazaspiro[2.5]oct-8-yl]phenyl}pyridine-2-carboxamide], for which the Ki in assay [1] was 8 nM; in assay [2] it was 46 nM.

(Values after patent publication US9802928B2 (Merck Sharp & Dohme Corp., priority 2013, dated 2017).)
